Results taken from patent US7977481B2, “Pyrimidinyl-thiophene kinase modulators” (SGX Pharmaceuticals, Inc., priority 2005, dated 2011).

target: T1, Autophosphorylated AurA kinase (Homo sapiens, UniProt O14965); test: AurA Luminescence-Based ATP Depletion Enzyme Assay; assay type: biochemical; settings: 10 μM ATP
T1 construct: made in house; host or cells: Sf9 insect cells
T1 sequence (O14965 1-403): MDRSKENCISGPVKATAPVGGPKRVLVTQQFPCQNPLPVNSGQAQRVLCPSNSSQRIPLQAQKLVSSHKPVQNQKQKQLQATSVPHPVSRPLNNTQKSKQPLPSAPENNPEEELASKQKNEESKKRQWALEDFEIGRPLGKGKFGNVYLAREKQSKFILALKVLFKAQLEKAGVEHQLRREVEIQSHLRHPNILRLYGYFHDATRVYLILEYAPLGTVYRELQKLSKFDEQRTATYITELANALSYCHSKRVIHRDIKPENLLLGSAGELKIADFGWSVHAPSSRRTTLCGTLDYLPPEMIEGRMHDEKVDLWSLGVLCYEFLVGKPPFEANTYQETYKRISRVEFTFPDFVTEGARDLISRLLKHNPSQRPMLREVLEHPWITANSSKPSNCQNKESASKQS
Experimental: AurA Luminescence-Based ATP Depletion Enzyme Assay
Materials: Kemptide peptide substrate=LRRASLG (Biopeptide, San Diego, Calif.), ATP (Sigma Cat#A-3377, FW=551), HEPES buffer, pH 7.5, 10% Brij 35 (Calbiochem Cat#203728), MgCl2, Staurosporine (Streptomyces sp. Sigma Cat#85660-1MG), white Costar 384-well flat-bottom plate (VWR Cat#29444-088), Autophosphorylated AurA kinase (see below), Kinase-Glo™ (Promega Cat#V6712).
Stock Solutions: 10 mM Kemptide peptide (7.72 mg/ml in water), stored at −20° C.; 100 mM HEPES buffer+0.015% Brij 35, pH 7.5 (5 ml 1M HEPES stock+75 μL 10% Brij 35+45 ml miliQH2O); 10 mM ATP (5.51 mg/ml in dH2O) stored at −20° C. (diluted 50 μl into total of 10 ml miliQH2O daily=50 μM ATP working stock); 100 mM MgCl2; 200 μM Staurosporine, 2× Kinase-Glo™ reagent (made fresh or stored at −20° C.).
AurA Autophosphorylation Reaction: ATP and MgCl2 were added to 1-5 mg/ml AurA at final concentrations of 10 mM and 100 mM, respectively. The autophosphorylation reaction was incubated at 21° C. for 2-3 h. The reaction was stopped by the addition of EDTA to a final concentration of 50 mM, and samples were flash frozen with liquid N2 and stored at −80° C.
Standard Assay Setup for 384-well format (20 μl kinase reaction, 40 μl detection reaction): 10 mM MgCl2; 0.2 mM Kemptide peptide; 1 μl test compound (in DMSO); 0.3 μg/ml Autophosphorylated AurA kinase; 10 μM ATP; 100 mM HEPES+0.015% Brij buffer. Positive controls contained DMSO with no test compound. Negative controls contained 5 μM staurosporine. The kinase reactions were initiated at time t=0 by the addition of ATP. Kinase reactions were incubated at 21° C. for 45 min, then 20 μl of Kinase-Glo™ reagent were added to each well to quench the kinase reaction and initiate the luminescence reaction. After a 20 min incubation at 21° C., the luminescence was detected in a plate-reading luminometer.
The Sf9 insect cell pellets (˜18 g) produced from 6 L of cultured cells expressing human Aurora-2 were resuspended in 50 mM Na Phosphate pH 8.0, 500 mM NaCl, 10% glycerol, 0.2% n-octyl-β-D-glucopyranoside (BOG) and 3 mM β-Mercaptoethanol (BME). One tablet of Roche Complete, EDTA-free protease inhibitor cocktail (Cat#1873580) and 85 units Benzonase (Novagen Cat#70746-3)) were added per 1 L of original culture. Pellets were resuspended in approximately 50 ml per 1 L of original culture and were then sonicated on ice with two 30-45 sec bursts (100% duty cycle). Debris was removed by centrifugation and the supernatant was passed through a 0.8 μm syringe filter before being loaded onto a 5 ml Ni^2+ HiTrap column (Pharmacia). The column was washed with 6 column volumes of 50 mM Na Phosphate pH 8.0, 500 mM NaCl, 10% glycerol, 3 mM BME. The protein was eluted using a linear gradient of the same buffer containing 500 mM Imidazole. The eluant (24 ml) was cleaved overnight at 4° C. in a buffer containing 50 mM Na Phosphate pH 8.0, 500 mM NaCl, 10% glycerol, 3 mM BME and 10,000 units of TEV (Invitrogen Cat#10127-017). The protein was passed over a second nickel affinity column as described above; the flow-through was collected. The cleaved protein fractions were combined and concentrated using spin concentrators. Further purification was done by gel filtration chromatography on a S75 sizing column in 50 mM Na Phosphate (pH 8.0), 250 mM NaCl, 1 mM EDTA, 0.1 mM AMP-PNP or ATP buffer, and 5 mM DTT. The cleanest fractions were combined and concentrated to approximately 8-11 mg/ml, and were either flash frozen in liquid nitrogen in 120 μl aliquots and stored at −80° C., or stored at 4° C.

CN(Cc1ccccc1)C(=O)c1ccc(-c2ccnc(Nc3ccc(CCO)cc3)n2)s1 and O=C(NCc1ccccc1)c1ccc(-c2ccnc(Nc3ccc(CCO)cc3)n2)s1 cannot be ordered by IC50: less than 100 nM for the first, less than 100 nM for the second.

First: CCN(CCC#N)C(=O)c1ccc(-c2ccnc(Nc3cccc(C(C)O)c3)n2)s1 (stereo not shown)
Second: CCN(CCC#N)S(=O)(=O)c1ccc(-c2ccnc(Nc3cccc(C(C)O)c3)n2)s1 (stereo not shown)
The IC50 of the first is higher: 100 to 500 nM for the first, less than 100 nM for the second. The second is the more potent here.

First: OC1CCN(Cc2cccc(Nc3nccc(-c4ccc(CNc5ccccc5Cl)s4)n3)c2)CC1
Second: C[C@@H](NC(=O)c1ccc(-c2ccnc(Nc3cccc(CN4CCC(O)CC4)c3)n2)s1)c1ccccc1
The IC50 of the first is higher: greater than 500 nM for the first, less than 100 nM for the second. The second is the more potent here.

First: CNC(=O)c1ccc(-c2ccc(-c3ccnc(Nc4cccc(C(C)O)c4)n3)s2)cc1 (stereo not shown)
Second: CC(O)c1cccc(Nc2nccc(-c3ccc(-c4ccncc4)s3)n2)c1 (stereo not shown)
The IC50 of the first is lower: 100 to 500 nM for the first, greater than 500 nM for the second. The first is the more potent here.

Compared with CC(O)c1cccc(Nc2nccc(-c3ccc(S(=O)(=O)N(C)C)s3)n2)c1 (stereo not shown), CCC1CCCCN1S(=O)(=O)c1ccc(-c2ccnc(Nc3cccc(C(C)O)c3)n2)s1 (stereo not shown) is higher in IC50: less than 100 nM for the first, 100 to 500 nM for the second. The first is the more potent here.

CN(C)C1CCN(c2cccc(Nc3nccc(-c4ccc(C(=O)NCc5ccco5)s4)n3)c2)C1 (stereo not shown) and CN(C)C(=O)c1cccc(Nc2nccc(-c3ccc(Br)s3)n2)c1 fall in the same range of IC50: 100 to 500 nM for the first, 100 to 500 nM for the second.

First: CCN(CCC#N)S(=O)(=O)c1ccc(-c2ccnc(Nc3cccc(C)c3)n2)s1
Second: CCC(=O)Nc1ccc(-c2ccnc(Nc3cccc(C)c3)n2)s1
The IC50 of the first is lower: less than 100 nM for the first, 100 to 500 nM for the second.

First: COc1ccc(Nc2nccc(-c3ccc(Br)s3)n2)cc1C(=O)N(C)C
Second: COc1ccc(Nc2nccc(-c3ccc(Br)s3)n2)cc1OC
The IC50 of the first is higher: 100 to 500 nM for the first, less than 100 nM for the second. The second is the more potent here.

Compared with Brc1ccc(-c2ccnc(Nc3cccc(CN4CCOCC4)c3)n2)s1, O=C(c1cccc(Nc2nccc(-c3ccc(Br)s3)n2)c1)N1CCN(CCO)CC1 is lower in IC50: greater than 500 nM for the first, 100 to 500 nM for the second.

First: C[C@@H](NC(=O)c1ccc(-c2ccnc(Nc3cccc(CN4CCN(CCO)CC4)c3)n2)s1)c1ccccc1
Second: CC(O)c1cccc(Nc2nccc(-c3ccc(S(=O)(=O)Cc4ccccc4)s3)n2)c1 (stereo not shown)
The IC50 of the first is lower: less than 100 nM for the first, 100 to 500 nM for the second.

CC(O)c1cccc(Nc2nccc(-c3ccc(-c4cccc(CC#N)c4)s3)n2)c1 (stereo not shown) and CC(O)c1cccc(Nc2nccc(-c3ccc(-c4cccnc4)s3)n2)c1 (stereo not shown) fall in the same range of IC50: 100 to 500 nM for the first, 100 to 500 nM for the second.
